Earlier results on one compound are cited in article PMC10893631, “Receptor-based pharmacophore modeling, molecular docking, synthesis and biological evaluation of novel VEGFR-2, FGFR-1, and BRAF multi-kinase inhibitors” (BMC Chemistry, 2024).

pKi: −log10 of the molar value.

This data set concerns the target T1, VEGFR-2 (Homo sapiens, UniProt P35968).
T1 construct: purchased BPS Biosciences 40325
Details: method as in PMID 17696416. Conditions: cited from earlier work.

T1 sequence (P35968 20-1356): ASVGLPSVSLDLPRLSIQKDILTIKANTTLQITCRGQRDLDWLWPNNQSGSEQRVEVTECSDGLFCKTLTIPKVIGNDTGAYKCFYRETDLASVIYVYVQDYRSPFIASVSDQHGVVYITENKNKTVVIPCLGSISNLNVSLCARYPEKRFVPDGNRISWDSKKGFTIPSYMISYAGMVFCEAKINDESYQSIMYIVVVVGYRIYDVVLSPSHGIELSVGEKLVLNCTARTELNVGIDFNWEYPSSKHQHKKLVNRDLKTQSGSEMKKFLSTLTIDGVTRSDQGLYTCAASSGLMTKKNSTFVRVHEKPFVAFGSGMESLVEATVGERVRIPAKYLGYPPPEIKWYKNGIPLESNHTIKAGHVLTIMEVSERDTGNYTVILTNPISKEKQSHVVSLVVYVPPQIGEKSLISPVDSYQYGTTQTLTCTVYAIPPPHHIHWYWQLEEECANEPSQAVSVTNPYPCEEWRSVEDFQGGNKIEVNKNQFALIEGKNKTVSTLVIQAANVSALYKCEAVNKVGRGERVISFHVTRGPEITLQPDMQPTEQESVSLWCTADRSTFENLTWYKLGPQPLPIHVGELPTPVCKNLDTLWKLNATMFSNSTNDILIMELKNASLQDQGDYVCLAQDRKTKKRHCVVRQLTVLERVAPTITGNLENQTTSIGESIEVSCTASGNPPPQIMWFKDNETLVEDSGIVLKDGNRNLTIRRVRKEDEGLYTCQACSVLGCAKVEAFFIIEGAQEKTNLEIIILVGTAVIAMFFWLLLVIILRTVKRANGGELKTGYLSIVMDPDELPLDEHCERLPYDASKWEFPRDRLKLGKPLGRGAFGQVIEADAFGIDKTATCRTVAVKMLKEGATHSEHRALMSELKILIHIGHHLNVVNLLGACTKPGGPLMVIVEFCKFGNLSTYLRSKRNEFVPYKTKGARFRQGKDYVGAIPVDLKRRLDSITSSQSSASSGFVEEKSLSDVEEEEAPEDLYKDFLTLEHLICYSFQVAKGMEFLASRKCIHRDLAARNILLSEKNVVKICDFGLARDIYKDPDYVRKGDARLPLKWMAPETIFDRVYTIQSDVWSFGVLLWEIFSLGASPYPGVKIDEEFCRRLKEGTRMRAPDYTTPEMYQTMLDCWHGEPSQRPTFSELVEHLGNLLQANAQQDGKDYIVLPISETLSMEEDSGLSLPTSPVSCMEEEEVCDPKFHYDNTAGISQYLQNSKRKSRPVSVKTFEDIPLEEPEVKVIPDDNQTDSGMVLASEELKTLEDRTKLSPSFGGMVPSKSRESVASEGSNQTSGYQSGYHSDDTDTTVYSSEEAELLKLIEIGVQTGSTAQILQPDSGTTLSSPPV

What is called pKi is the negative decadic logarithm of the Ki, by convention in mol/L. `CNC(=O)c1cc(Oc2ccc3[nH]c(Nc4ccc(C(F)(F)F)c(Cl)c4)nc3c2)ccn1` [II]: the pKi was 8.06.
